Starred links: 1 amine or outer side, 2 acyl side, 3 side chain; linkers in the order of their positions; H or OH if unused. Positions of bridges follow the written chain, without caps; N, C: chain ends. Non-standard residues stand in square brackets, D forms with d. Residues, ends and D or L forms follow the SMILES beside them. ξ: configuration not given here. *: point of attachment. X37 = CC(NC(=O)[C@@H](N)CCCCN)C(N[*:1])C(=O)[*:2]; X18 = CC(NC(=O)/C=C/c1ccco1)C(N[*:1])C(=O)[*:2]; ξAbu(βξ-NH2) = CC(N[*:3])C(N[*:1])C(=O)[*:2]; Phac(3-amino) = O=C(Cc1cccc(N[*:1])c1)[*:2]; X44 = CCNCC(=O)NC(C)C(N[*:1])C(=O)[*:2]; Pentadecanoyl = CCCCCCCCCCCCCCC(=O)*; ξAsp(βξ-Me) = CC(C(=O)O)C(N)C(=O)O; X5 = CCCCCCCCCCCCn1cc(C(=O)*)nn1; X13 = O=C(CCCCCCCCCCOc1ccccc1)*; ξAbu(3ξ-NH2) = CC(N)C(N)C(=O)O; X19 = CCCCCCCCCCS(=O)(=O)*; Pip = O=C(O)[CH]1CCCCN1; ξD = NC(CC(=O)O)C(=O)O; ξPip = O=C(O)C1CCCCN1; ξV = CC(C)C(N)C(=O)O; ξP = O=C(O)C1CCCN1

One assay relates to Staphylococcus aureus (MSSA). The conditions noted are these: 24 h. The gist of the method: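 Broth microdilution MIC per NCCLS M7-A6 with doubling serial dilutions, in cation-adjusted Mueller-Hinton broth supplemented with 0.625 mM calcium.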
Regarding `CCCCCCCCCCCCCCC(=O)Nc1cccc(CC(=O)NC(CC(=O)O)C(=O)NC2C(=O)N3CCCCC3C(=O)NC(C(C)C(=O)O)C(=O)NC(CC(=O)O)C(=O)NCC(=O)NC(CC(=O)O)C(=O)NCC(=O)NC(C(C)N)C(=O)NC(C(C)C)C(=O)N3CCCC3C(=O)NC2C)c1` (stereo not drawn) [Compound 310, C15-(M-Apa)-Amphomycin] (Pentadecanoyl-[Phac(3-amino)]D[ξAbu(βξ-NH2)][Pip][ξAsp(βξ-Me)]DGDG[ξAbu(3ξ-NH2)]VP; lactam 3-C; configuration not given here), the MIC stood at 1 µg/mL.

Regarding `CCCCCCCCCCCCCCC(=O)NC(CC(=O)O)C(=O)NC1C(=O)N2CCCCC2C(=O)NC(C(C)C(=O)O)C(=O)NC(CC(=O)O)C(=O)NCC(=O)NC(CC(=O)O)C(=O)NCC(=O)NC(C(C)NC(=O)[C@@H](N)[C@@H](C)CC)C(=O)NC(C(C)C)C(=O)N2CCCC2C(=O)NC1C` (some centres unmarked) [Compound 36, C15-Amphomycin-9-Ile], the MIC lay within 8 to 16 µg/mL.

Regarding `CCCCCCCCCCCCCCC(=O)NC(CC(=O)O)C(=O)NC1C(=O)N2CCCCC2C(=O)NC(C(C)C(=O)O)C(=O)NC(CC(=O)O)C(=O)NCC(=O)NC(CC(=O)O)C(=O)NCC(=O)NC(C(C)NC(=O)[C@@H](N)Cc2ccccc2)C(=O)NC(C(C)C)C(=O)N2CCCC2C(=O)NC1C` (some centres unmarked) [Compound 341, C15-Amphomycin-9-Phe], the MIC is more than 64 µg/mL.

As to `CCCCCCCCCCCCn1cc(C(=O)NC(CC(=O)O)C(=O)NC2C(=O)N3CCCCC3C(=O)NC(C(C)C(=O)O)C(=O)NC(CC(=O)O)C(=O)NCC(=O)NC(CC(=O)O)C(=O)NCC(=O)NC(C(C)N)C(=O)NC(C(C)C)C(=O)N3CCCC3C(=O)NC2C)nn1` (stereo not drawn) [Compound 309, 1-Dodecyl-1H-(1,2,3)-Triazole-4-Carboxyl-Amphomycin] (X5-D[ξAbu(βξ-NH2)][Pip][ξAsp(βξ-Me)]DGDG[ξAbu(3ξ-NH2)]VP; lactam 2-C; configuration not given here), the MIC was found to be 1 µg/mL.

Take `CCCCCCCCCCCCCCC(=O)NC(CC(=O)O)C(=O)NC1C(=O)N2CCCCC2C(=O)NC(C(C)C(=O)O)C(=O)NC(CC(=O)O)C(=O)NCC(=O)NC(CC(=O)O)C(=O)NCC(=O)NC(C(C)NC(=O)[C@@H](N)Cc2ccc(OC)cc2)C(=O)NC(C(C)C)C(=O)N2CCCC2C(=O)NC1C` (some centres unmarked) [Compound 52, C15-Amphomycin-9-Tyr(Me)]: the MIC is 16 µg/mL.

`CC(C)C1NC(=O)C(C(C)N)NC(=O)CNC(=O)C(CC(=O)O)NC(=O)CNC(=O)C(CC(=O)O)NC(=O)C(C(C)C(=O)O)NC(=O)C2CCCCN2C(=O)C(NC(=O)C(CC(=O)O)NC(=O)CCCCCCCCCCOc2ccccc2)C(C)NC(=O)C2CCCN2C1=O` (stereo not drawn) [Compound 333, (11-(Phenoxy)Undecanoyl)-Amphomycin] (X13-D[ξAbu(βξ-NH2)][Pip][ξAsp(βξ-Me)]DGDG[ξAbu(3ξ-NH2)]VP; lactam 2-C; configuration not given here): the MIC was 1 µg/mL.

As for `CCCCCCCCCCS(=O)(=O)NCC(=O)NC(CC(=O)O)C(=O)NC1C(=O)N2CCCCC2C(=O)NC(C(C)C(=O)O)C(=O)NC(CC(=O)O)C(=O)NCC(=O)NC(CC(=O)O)C(=O)NCC(=O)NC(C(C)NC(=O)[C@@H](N)CCCCN)C(=O)NC(C(C)C)C(=O)N2CCCC2C(=O)NC1C` (stereo partly drawn) [Compound 101, CH3—(CH2)9—SO2-Gly-Amphomycin-9-Lys] (X19-G[ξD][ξAbu(βξ-NH2)][ξPip][ξAsp(βξ-Me)][ξD]G[ξD]G[X37][ξV][ξP]; lactam 3-C), the MIC was found to be 32 µg/mL.

In the case of `CCCCCCCCCCCCCCC(=O)NC(CC(=O)O)C(=O)NC1C(=O)N2CCCCC2C(=O)NC(C(C)C(=O)O)C(=O)NC(CC(=O)O)C(=O)NCC(=O)NC(CC(=O)O)C(=O)NCC(=O)NC(C(C)NC(=O)/C=C/c2ccco2)C(=O)NC(C(C)C)C(=O)N2CCCC2C(=O)NC1C` (stereo not drawn) [Compound 349, C15-Amphomycin-9-(3-Furan-2-yl-Acryloyl)] (Pentadecanoyl-D[ξAbu(βξ-NH2)][Pip][ξAsp(βξ-Me)]DGDG[X18]VP; lactam 2-C; configuration not given here), the minimum inhibitory concentration (MIC) was 64 µg/mL.

On to `CCCCCCCCCCCCCCC(=O)NC(CC(=O)O)C(=O)NC1C(=O)N2CCCCC2C(=O)NC(C(C)C(=O)O)C(=O)NC(CC(=O)O)C(=O)NCC(=O)NC(CC(=O)O)C(=O)NCC(=O)NC(C(C)NC(=O)CNC(=O)CCC(=O)O)C(=O)NC(C(C)C)C(=O)N2CCCC2C(=O)NC1C` (centres unmarked) [Compound 48, C15-Amphomycin-9-Gly-Suc], for which the MIC is 8 µg/mL.

As to `CCCCCCCCCCCC(=O)NC(CC(=O)O)C(=O)NC1C(=O)N2CCCCC2C(=O)NC(C(C)C(=O)O)C(=O)NC(CC(=O)O)C(=O)NCC(=O)NC(CC(=O)O)C(=O)NCC(=O)NC(C(C)N)C(=O)NC(C(C)C)C(=O)N2CCCC2C(=O)NC1C` (centres unmarked) [Compound 8, C12-Amphomycin], the MIC was 4 to 8 µg/mL.

In the case of `CCCCCCCCCCCCCCC(=O)NC(CC(=O)O)C(=O)NC1C(=O)N2CCCCC2C(=O)NC(C(C)C(=O)O)C(=O)NC(CC(=O)O)C(=O)NCC(=O)NC(CC(=O)O)C(=O)NCC(=O)NC(C(C)NC(=O)CNCC)C(=O)NC(C(C)C)C(=O)N2CCCC2C(=O)NC1C` (stereo not drawn) [Compound 243, C15-Amphomycin-9-(N-Ethyl-Gly)] (Pentadecanoyl-D[ξAbu(βξ-NH2)][Pip][ξAsp(βξ-Me)]DGDG[X44]VP; lactam 2-C; configuration not given here), the MIC is 0.5 to 1 µg/mL.

Regarding `CCCCCCCCCCCCCCC(=O)NC(CC(=O)O)C(=O)NC1C(=O)N2CCCCC2C(=O)NC(C(C)C(=O)O)C(=O)NC(CC(=O)O)C(=O)NCC(=O)NC(CC(=O)O)C(=O)NCC(=O)NC(C(C)NC(=O)[C@@H]2CCCN2C(=O)[C@@H](N)CCCCN)C(=O)NC(C(C)C)C(=O)N2CCCC2C(=O)NC1C` (some centres unmarked) [Compound 353, C15-Amphomycin-9-Pro-Lys], the MIC was more than 64 µg/mL.

Staying with this assay, now noted: S. aureus (MSSA), CAMHB supplemented with 0.625 mM calcium, 24 hours at about 37° C.; a range = compound tested multiple times.
As to `CCCCCCCCCCCC(=O)NC(CC(=O)O)C(=O)NC1C(=O)N2CCCCC2C(=O)NC(C(C)C(=O)O)C(=O)NC(CC(=O)O)C(=O)NCC(=O)NC(CC(=O)O)C(=O)NCC(=O)NC(C(C)NC(=O)CCN)C(=O)NC(C(C)C)C(=O)N2CCCC2C(=O)NC1C` (stereo not drawn) [Compound 73, C12-Amphomycin-9-(β-Ala)], the MIC is listed as 73/2-4 μg/mL.

Take `CCCCCCCCCC(=O)NC(CC(=O)O)C(=O)NC1C(=O)N2CCCCC2C(=O)NC(C(C)C(=O)O)C(=O)NC(CC(=O)O)C(=O)NCC(=O)NC(CC(=O)O)C(=O)NCC(=O)NC(C(C)NC(=O)CNC)C(=O)NC(C(C)C)C(=O)N2CCCC2C(=O)NC1C` (centres unmarked) [Compound 77, C10-Amphomycin-9-Sar]: the MIC was 77/32 μg/mL.

Turning to `CCCCCCCCCCCCCC(=O)NC(CC(=O)O)C(=O)NC1C(=O)N2CCCCC2C(=O)NC(C(C)C(=O)O)C(=O)NC(CC(=O)O)C(=O)NCC(=O)NC(CC(=O)O)C(=O)NCC(=O)NC(C(C)NC(=O)[C@@H](N)CCCN)C(=O)NC(C(C)C)C(=O)N2CCCC2C(=O)NC1C` (some centres unmarked) [Compound 127, C14-Amphomycin-9-Orn], the MIC is on record as 127/4 μg/mL.

For the compound `CCCCCCCCCCCCCC(=O)NC(CC(=O)O)C(=O)NC1C(=O)N2CCCCC2C(=O)NC(C(C)C(=O)O)C(=O)NC(CC(=O)O)C(=O)NCC(=O)NC(CC(=O)O)C(=O)NCC(=O)NC(C(C)NC(=O)CCN)C(=O)NC(C(C)C)C(=O)N2CCCC2C(=O)NC1C` (stereo not drawn) [Compound 59, C14-Amphomycin-9-(β-Ala)], the MIC was 59/0.5-1 μg/mL.

Turning to `CCCCCCCCCCCCCC(=O)NC(CC(=O)O)C(=O)NC1C(=O)N2CCCCC2C(=O)NC(C(C)C(=O)O)C(=O)NC(CC(=O)O)C(=O)NCC(=O)NC(CC(=O)O)C(=O)NCC(=O)NC(C(C)NC(=O)[C@@H](N)CN)C(=O)NC(C(C)C)C(=O)N2CCCC2C(=O)NC1C` (some centres unmarked) [Compound 140, C14-Amphomycin-9-Dap], the minimum inhibitory concentration (MIC) is on record as 140/32 μg/mL.

Usually MIC stands for the smallest concentration in the dilution series that meets the test's criterion for growth inhibition.

The values above are taken from patent publication US7868135B2, “Compositions of lipopeptide antibiotic derivatives and methods of use thereof” (priority 2003, dated 2011).
